The results in this text go back to patent US20160039914A1 (priority 2013, published 2016).

The test system of one assay is MRSA strain 38. Further details: species or system S. aureus. The note with it: in vivo.
The test system of assay [1] is S. aureus (MRSA strain 38). Conditions: in vivo, iv.

Regarding `CN[C@H](CC(C)C)C(=O)N[C@H]1C(=O)N[C@@H](CC(N)=O)C(=O)N[C@H]2C(=O)N[C@H]3C(=O)N[C@H](C(=O)N[C@H](C(=O)O)c4cc(O)cc(O)c4-c4cc3ccc4O)[C@H](O)c3ccc(c(Cl)c3)Oc3cc2cc(c3O[C@@H]2O[C@H](CO)[C@@H](O)[C@H](O)[C@H]2O[C@H]2C[C@](C)(N)[C@H](O)[C@H](C)O2)Oc2ccc(cc2Cl)[C@H]1O` [vancomycin], in the assay on MRSA strain 38, the “mIL-1ra level in abscess fluid” value is “not significantly reduced”; the “mIL-6 level in abscess fluid” value is given as “not significantly reduced”; the “neutrophil and eosinophil counts” value is reported as “lower”. In assay [1], this compound registered an IFN-γ in serum of 2.98 ± 1.64, an IL-1β in serum of 3.51 ± 1.08, an IL-6 in serum of 379.72 ± 335.45 and an IL-10 in serum of 16.75 ± 6.67. In assay [1], this compound showed an IL-12p70 in serum of 61.55 ± 23.71, a KC/GRO in serum of 260.69 ± 122.01 and a TNF-α in serum of 1.46 ± 0.68.
